Measurements reported in US8193171B2, “13,13-dimethyl-des-C,D analogs of 1α,25-dihydroxy-19-nor-vitamin D3 compounds and topical composition dosage forms and methods of treating skin conditions thereof” (Wisconsin Alumni Research Foundation, priority 2008, dated 2012).

Key:
[1] = tested on: 24-hydroxylase (24OHase) gene promoter; assay: In vitro 24-OHase transcription assay (luciferase reporter in ROS 17/2.8 bone cells); assay type: cell-based; conditions: ROS 17/2.8 cells, sixteen hours after dosing
Protocol: In vitro Transcription Assay. Transcription activity was measured in ROS 17/2.8 (bone) cells that were stably transfected with a 24-hydroxylase (24OHase) gene promoter upstream of a luciferase reporter gene. (Arbour et al., 1998). Cells were given a range of doses. Sixteen hours after dosing the cells were harvested and luciferase activities were measured using a luminometer. RLU=relative luciferase units.

[2] = tested on: bone calcium mobilization; assay: Bone calcium mobilization (serum calcium); assay type: in vivo, rat; conditions: Sprague-Dawley rats, four consecutive intraperitoneal doses
Protocol: (§1) Intestinal Calcium Transport and Bone Calcium Mobilization Activity. Male, weanling Sprague-Dawley rats were placed on Diet 11 (0.47% Ca) diet+AEK oil for one week followed by Diet 11 (0.02% Ca)+AEK oil for 3 weeks. The rats were then switched to a diet containing 0.47% Ca for one week followed by two weeks on a diet containing 0.02% Ca. Dose administration began during the last week on 0.02% calcium diet. Four consecutive intraperitoneal doses were given approximately 24 hours apart. Twenty-four hours after the last dose, blood was collected from the severed neck and the concentration of serum calcium determined as a measure of bone calcium mobilization. The first 10 cm of the intestine was also collected for intestinal calcium transport analysis using the everted gut sac method.

Rhino mouse comedones = assay: Comedolytic effect of daily topical application in the Rhino mouse; assay type: in vivo; conditions: for Comedone Area (% Vehicle): Rhino mouse, topical daily ca. 3 weeks, 70 vol % ethanol / 30 vol % propylene glycol, mean ± SEM, N 6
Description: Rhino mice were used to topically test the compounds and compositions of the invention. The Rhino mouse is a well-established animal model used to study the comedolytic effects of anti-acne agents including retinoids. (See Boulcier M et al., 1990, Experimental Models in Skin Pharmacology, In Pharmacological Reviews 42:127-154). The Rhino mouse model was used to study the therapeutic potential of 13Me2.
Animals and dose administration. Rhino mice were enrolled in the study at 6-8 weeks of age and were dosed daily via the topical route. The mice were weighed three times per week and doses were adjusted weekly based on body weight. The topical formulations were applied to the back of the animal in a maximum volume of 100 μL. The topical formulations were made by mixing the 13Me2 with a topical carrier comprising 70 vol % ethanol and 30 vol % propylene glycol, as indicated. The topical vehicle control was the vehicle carrier solution matched to the formulation containing API and vehicle carrier. Mice were sacrificed 72 hours after the final topical dose. At sacrifice, the dorsal skin was collected for histology studies.
Comedolytic effect. The extent of the comedolytic effect (i.e., efficacy) was assessed by measuring the average area of the comedones, whereby the smaller the area, the larger the effect. The comedone area was determined by histological analysis of tissue sections based upon lab methods. Skin was fixed overnight in 4% paraformaldehyde at 4° C. with gentle agitation, and dehydrated the next day into 100% methanol.
Samples were embedded in paraffin and a total of nine 10μ sections 150μ apart were prepared from each Rhino mouse. Five of the nine sections were digitally imaged (6× magnification) for comedone analysis using Metamorph Imaging Software (trace function). The perimeter of each comedone on the images taken from the 5 sections was then traced using a Wacom Intuos 3 Graphics Tablet interfaced with the software.
The number of pixels comprising the area of each individual comedone was obtained, and the mean number of pixels per comedone was obtained for each Rhino mouse. For comedones that were completely healed (area=0) a pixel value approaching 0 (<10) was scored. The individual comedone area average for each mouse was then used to calculate the treatment group mean. Results in the figures are expressed in terms of mean±standard error of the mean.
Preparation of topical formulations containing 13Me2. A concentrated ethanolic stock of 13Me2 was diluted to a final concentration containing 30 vol % propylene glycol and 70 vol % ethanol as the excipient carrier system. The mixture was thoroughly mixed. The topical dosing formulation delivered a predetermined dosing amount of drug on a per kilogram body weight basis. […]

[3] = target: T1, Full-length recombinant rat receptor (vitamin D receptor, VDR) (Rattus norvegicus, UniProt P13053); assay: Competitive vitamin D receptor binding; conditions: relative to 1.25(OH)2D3; radioligand 3H-1.25(OH)2D3 1 nM
T1 construct: Full-length recombinant rat receptor was expressed in E. coli; histidine tag (C); made in house; host or cells: E. coli BL21(DE3) Codon Plus RIL
T1 sequence (P13053 1-423): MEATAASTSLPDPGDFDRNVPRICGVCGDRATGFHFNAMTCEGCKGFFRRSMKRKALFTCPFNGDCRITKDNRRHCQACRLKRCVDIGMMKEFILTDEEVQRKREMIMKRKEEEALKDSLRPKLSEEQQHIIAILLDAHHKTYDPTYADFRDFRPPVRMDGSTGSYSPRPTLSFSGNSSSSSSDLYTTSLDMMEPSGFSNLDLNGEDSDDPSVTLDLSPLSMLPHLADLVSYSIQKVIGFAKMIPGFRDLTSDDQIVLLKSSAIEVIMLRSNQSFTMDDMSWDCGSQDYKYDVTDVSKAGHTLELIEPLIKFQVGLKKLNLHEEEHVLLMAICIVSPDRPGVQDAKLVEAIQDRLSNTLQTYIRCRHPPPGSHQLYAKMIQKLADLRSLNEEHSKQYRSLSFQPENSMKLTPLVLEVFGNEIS
Protocol: Experimental Methods. […] The first system was a nickel affinity resin that utilizes the C-terminal histidine tag on this protein. The protein that was eluted from this resin was further purified using ion exchange chromatography (S-Sepharose Fast Flow). Aliquots of the purified protein were quick frozen in liquid nitrogen and stored at −80° C. until use. For use in binding assays, the protein was diluted in TEDK50 (50 mM Tris, 1.5 mM EDTA, pH 7.4, 5 mM DTT, 150 mM KCl) with 0.1% Chaps detergent. The receptor protein and ligand concentration was optimized such that no more than 20% of the added radiolabeled ligand was bound to the receptor.
Assay Conditions. […] The hydroxylapaptite was collected by centrifugation and then washed three times with Tris-EDTA buffer (50 mM Tris, 1.5 mM EDTA, pH 7.4) containing 0.5% Titron X-100. After the final wash, the pellets were transferred to scintillation vials containing 4 ml of Biosafe II scintillation cocktail, mixed and placed in a scintillation counter. Total binding was determined from the tubes containing only radiolabeled ligand.

[4] = tested on: intestinal calcium transport; assay: Intestinal calcium transport (everted gut sac method); assay type: in vivo, rat; conditions: Sprague-Dawley rats, four consecutive intraperitoneal doses
Protocol: as §1

[5] = tested on: Human promyelocytic leukemia (HL-60) cells; assay: HL-60 cell differentiation (nitro blue tetrazolium reduction); assay type: cell-based; conditions: four days of treatment
Protocol: HL-60 Differentiation. Test Material. Study Drugs. The study drugs were dissolved in ethanol and the concentrations determined using UV spectrophotometry. Serial dilutions were prepared so that a range of drug concentrations could be tested without changing the final concentration of ethanol (<0.2%) present in the cell cultures.
Cells. Human promyelocytic leukemia (HL-60) cells were grown in RPMI-1640 medium containing 10% fetal bovine serum. The cells were incubated at 37° C. in the presence of 5% CO2.
Assay Conditions. HL-60 cells were plated at 1.2×10^5 cells/ml. Eighteen hours after plating, cells in duplicate were treated with drug. Four days later, the cells were harvested and a nitro blue tetrazolium reduction assay was performed. (Collins et al., 1979, J. Exp. Med. 149:969-974). The percentage of differentiated cells was determined by counting a total of 200 cells and recording the number that contained intracellular black-blue formazan deposits. Verification of differentiation to monocytic cells was determined by measuring phagocytic activity (data not shown).

Row | SMILES | 24-OHase transcription activity relative to 1.25(OH)2D3 [1] | Activity on bone calcium mobilization [2] | Comedone area relative to the vehicle-treated group (FIG. 6) (Rhino mouse comedones; Rhino mice, topical 217 nmole/kgBW/day, 3 weeks daily) | Comedone area relative to the vehicle-treated group (FIG. 7) (Rhino mouse comedones; Rhino mice, topical 69 and 217 nmole/kgBW/day, 3 weeks daily) | Comedone Area (% Vehicle) (Rhino mouse comedones; dose 217 nmol/kg) | VDR binding affinity compared to the native hormone [3] | Activity on intestinal calcium transport [4] | HL-60 differentiation activity relative to 1.25(OH)2D3 [5] | Comedone Area (% Vehicle) (Rhino mouse comedones; dose 6.0 nmol/kg)
1 | C=C1[C@H](O)CC(=C/C=C/CC(C)(C)C[C@@H](C)CCCC(C)(C)O)C[C@H]1O [13Me2, (1R,3R)-5-[(E)-(S)-11′-hydroxy-5′,5′,7′,11′-tetramethyl-dodec-2′-enylidene]-2-methylene-cyclohexane-1,3-diol] | lower than 1.25(OH)2D3 by approximately one log | insignificant activity | significant reduction in comedone area | dose-dependent reduction in comedone area | 26 ± 3 | one log less affinity | insignificant activity | lower than 1.25(OH)2D3 by approximately one log | –
2 | C=C1/C(=C\C=C2/CCC[C@]3(C)[C@@H]([C@H](C)CCCC(C)(C)O)CC[C@@H]23)C[C@@H](O)C[C@@H]1O [1,25(OH)2D3, 1,25-DIHYDROXYVITAMIN D3, reference compound] | – | – | – | – | – | – | – | – | 187 ± 30
